Consider one molecule from patent US9272027B1 (priority 2014, dated 2016).

This test relates to F. tularensis Schu4. Put plainly: microbe, parasite or virus in culture. The class given is cell-based. The settings on record: Francisella tularensis, SCHU4, 44 h, read-out: IC50 of F. tularensis Schu4 growth inhibition.

As a reminder, the IC50 is the concentration that inhibits the measured activity by half. Take `O=CN(O)CCCP(=O)(O)O` [fosmidomycin]: the half-maximal inhibitory concentration (IC50) is 5 µM.
